Measured values published in patent publication US7285572B2, “CaSR antagonist” (Japan Tobacco Inc., priority 2003, dated 2007).

What was measured:
human calcium receptor = target: T1, human calcium receptor (Homo sapiens, UniProt P41180); experiment: Evaluation of antagonistic action on calcium receptor using reporter gene (luciferase); type: cell-based; conditions: rat adrenal derived cells with luciferase and human calcium receptor cDNA, 5 mM calcium chloride, 4 hrs; read-out: IC50 (concentration showing 50% inhibitory rate of luciferase activity)
T1 construct: expressed in transfected cells; host or cells: cell strain derived from rat adrenal, co-transfected with luciferase cDNA
T1 sequence (P41180 20-1078): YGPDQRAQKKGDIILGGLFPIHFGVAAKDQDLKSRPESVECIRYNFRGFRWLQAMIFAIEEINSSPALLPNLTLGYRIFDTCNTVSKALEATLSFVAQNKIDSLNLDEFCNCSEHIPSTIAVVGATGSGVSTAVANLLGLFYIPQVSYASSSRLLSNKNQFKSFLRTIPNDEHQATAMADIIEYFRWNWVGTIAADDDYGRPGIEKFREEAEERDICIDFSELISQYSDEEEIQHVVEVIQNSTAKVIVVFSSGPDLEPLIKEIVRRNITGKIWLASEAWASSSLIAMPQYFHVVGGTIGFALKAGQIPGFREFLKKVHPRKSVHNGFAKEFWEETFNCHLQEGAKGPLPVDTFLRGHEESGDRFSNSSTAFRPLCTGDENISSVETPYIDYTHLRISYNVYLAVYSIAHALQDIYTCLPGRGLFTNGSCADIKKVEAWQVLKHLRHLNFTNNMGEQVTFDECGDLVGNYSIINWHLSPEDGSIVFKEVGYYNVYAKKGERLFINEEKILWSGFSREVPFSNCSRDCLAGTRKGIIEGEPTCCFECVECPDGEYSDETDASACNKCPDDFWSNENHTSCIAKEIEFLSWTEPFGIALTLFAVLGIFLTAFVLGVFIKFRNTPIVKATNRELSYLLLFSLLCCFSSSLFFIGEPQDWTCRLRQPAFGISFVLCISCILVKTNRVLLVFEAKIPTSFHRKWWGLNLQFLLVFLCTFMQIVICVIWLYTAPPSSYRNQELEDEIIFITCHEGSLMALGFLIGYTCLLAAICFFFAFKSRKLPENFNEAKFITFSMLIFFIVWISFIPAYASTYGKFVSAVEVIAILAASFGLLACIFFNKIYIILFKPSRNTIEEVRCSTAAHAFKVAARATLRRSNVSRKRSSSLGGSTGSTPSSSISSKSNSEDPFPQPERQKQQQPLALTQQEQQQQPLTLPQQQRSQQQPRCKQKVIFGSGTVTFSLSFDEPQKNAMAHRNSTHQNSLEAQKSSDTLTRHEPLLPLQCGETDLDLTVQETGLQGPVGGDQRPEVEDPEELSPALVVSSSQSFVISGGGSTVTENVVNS
Protocol: Evaluation of Antagonistic Action on Calcium Receptor Using Reporter Gene
Luciferase cDNA and human calcium receptor cDNA were introduced into a cell strain derived from rat adrenal to transform the cells, and the transformed cells were cultured in a medium (80 μl, F12 medium containing 0.5% dialyzed horse serum and 0.25% dialyzed bovine fetal serum). A dimethyl sulfoxide solution containing a test compound at 0.1-10000 μM was diluted 100-fold with the medium and added to the test compound group at 10 μl per well (final concentration of dimethyl sulfoxide is 0.1%). In the same manner as in test compound group, dimethyl sulfoxide diluted 100-fold with medium was added to a control group and a blank group. Then, 50 mM calcium chloride-containing medium was added to every well except the blank group at 10 μl per well (final concentration is 5 mM). A medium alone was added to the blank group. After culture for 4 hrs, luciferase substrate was added and the luciferase activity was measured with a photoluminometer. The inhibitory rate (%) was calculated from the obtained measured values according to the following formula.
Based on the results, the concentration (IC50) showing 50% inhibitory rate was determined.

CYP2D6 = target: T2, CYP2D6 (Homo sapiens, UniProt P10635); experiment: Metabolic enzyme CYP2D6 inhibitory activity (BD Bioscience kit); type: in vitro ADME; conditions: enzyme activity free of test compound as 100%; read-out: CYP2D6 IC50 (concentration showing 50% inhibition)
T2 construct: purchased BD Bioscience
T2 sequence (P10635 whole entry): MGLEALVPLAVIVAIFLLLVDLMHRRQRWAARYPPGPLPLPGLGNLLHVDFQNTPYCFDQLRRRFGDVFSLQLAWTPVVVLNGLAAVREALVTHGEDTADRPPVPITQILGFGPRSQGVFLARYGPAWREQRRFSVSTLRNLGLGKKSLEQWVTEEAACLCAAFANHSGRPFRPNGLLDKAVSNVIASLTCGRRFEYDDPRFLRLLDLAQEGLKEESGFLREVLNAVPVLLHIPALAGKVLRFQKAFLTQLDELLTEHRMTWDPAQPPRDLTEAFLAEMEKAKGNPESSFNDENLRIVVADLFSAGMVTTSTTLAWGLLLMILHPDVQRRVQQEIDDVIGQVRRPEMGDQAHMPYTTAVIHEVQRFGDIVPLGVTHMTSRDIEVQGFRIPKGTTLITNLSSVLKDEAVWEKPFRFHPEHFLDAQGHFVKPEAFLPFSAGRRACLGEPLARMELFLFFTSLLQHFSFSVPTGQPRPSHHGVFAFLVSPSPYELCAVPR
Protocol: Metabolic Enzyme CYP2D6 Inhibitory Activity
Using a metabolic enzyme CYP2D6 inhibition measurement kit (BD Bioscience) and following the manual of the kit, the inhibitory activity of the test compound was measured. With the enzyme activity free of the test compound as 100%, the concentration (IC50) showing 50% inhibition was determined. The results are shown in Table 8, wherein “>10” means over 10 μM.

PTH secretion = experiment: PTH secretagogue action, oral administration to fasted male SD rats, serum PTH by ELISA; type: in vivo, rat; conditions: test compound administration group
Protocol: The test compound was orally administered to 5 to 9-week-old male SD rats (Charles River Japan, Inc.) fasted for 20 hr, using a solvent (0.5% aqueous methyl cellulose solution) at a dose of 3 mg/5 ml/kg or 30 mg/5 ml/kg. A solvent alone was orally administered to the control group at a dose of 5 ml/kg. The blood was drawn from the tail vein 15 min, 30 min, 60 min and 120 min after the administration of the test compound, and serum was obtained. The serum PTH concentration was measured using rat PTH ELISA kit (Amersham Biosciences).

PTH release = conditions: rat PTH (1-34) 5 μg/kg, OVX rat; cited from earlier work

Row | Compound | IC50 (human calcium receptor) | further results
1 | CCOP(=O)(O)c1ccc(-c2ccccc2[C@@H](C)OC[C@H](O)CNC(C)(C)Cc2ccc3ccccc3c2)cc1 [Example 11, Monoethyl [2′-[(1R)-1-[(2R)-2-hydroxy-3-[[2-methyl-1-(naphthalen-2-yl)propan-2-yl]amino]propoxy]ethyl]biphenyl-4-yl]phosphonate] | 8 nM | 
2 | Cc1ccc(CC(C)(C)NC[C@@H](O)CO[C@H](C)c2ccccc2OCc2ccc(C(=O)O)s2)cc1F [Example 30] | 183 nM | 
3 | CC(OC[C@H](O)CNC(C)(C)Cc1ccc2ccccc2c1)c1ccccc1-c1ccc(CC(=O)O)cc1 (stereo partly drawn) [Example 14] | 119 nM | 
4 | C[C@@H](OC[C@H](O)CNC(C)(C)Cc1ccc2ccccc2c1)c1ccccc1-c1ccc(C(=O)NO)cc1 [Example 17] | 104 nM | 
5 | CC(=O)NCc1ccc(-c2ccccc2[C@@H](C)OC[C@H](O)CNC(C)(C)Cc2ccc3ccccc3c2)cc1 [Example 5, N-[[2′-[(1R)-1-[(2R)-2-hydroxy-3-[[2-methyl-1-(naphthalen-2-yl)propan-2-yl]amino]propoxy]ethyl]biphenyl-4-yl]methyl]acetamide] | 24 nM | 
6 | CCOC(=O)Cc1ccc(-c2ccccc2C(C)OC[C@H](O)CNC(C)(C)Cc2ccc3ccccc3c2)cc1 (stereo partly drawn) [Example 13] | 160 nM | 
7 | C[C@@H](OC[C@H](O)CNC(C)(C)Cc1ccc2ccccc2c1)c1ccccc1-c1ccc([N+](=O)[O-])cc1 [Example 28] | 254 nM | 
8 | CC(OC[C@H](O)CNC(C)(C)Cc1ccc2ccccc2c1)c1ccccc1C#CC(=O)O (stereo partly drawn) [Example 10, [2-[1-[(2R)-2-hydroxy-3-[[2-methyl-1-(naphthalen-2-yl)propan-2-yl]amino]propoxy]ethyl]phenyl]propynoic acid] | 23 nM | 
9 | CCOP(=O)(O)c1ccc(-c2ccccc2C(C)OC[C@H](O)CNC(C)(C)Cc2ccc3ccccc3c2)cc1 (stereo partly drawn) [Example 21] | 15 nM | 
10 | C[C@@H](OC[C@H](O)CNC(C)(C)Cc1ccc2ccccc2c1)c1ccccc1OCCCC(=O)O [Example 24] | 246 nM | 
11 | CC(OC[C@H](O)CNC(C)(C)Cc1ccc2ccccc2c1)c1ccccc1-c1ccc(-c2nsc(=O)[nH]2)cc1 (stereo partly drawn) [Example 16] | 135 nM | 
12 | CC(OC[C@H](O)CNC(C)(C)Cc1ccc2ccccc2c1)c1ccccc1-c1ccc(C(N)=O)cc1 (stereo partly drawn) [Example 20] | 30 nM | 
13 | CC(OC[C@H](O)CNC(C)(C)Cc1ccc2ccccc2c1)c1ccccc1-c1ccc(CC(N)=O)cc1 (stereo partly drawn) [Example 15] | 145 nM | 
14 | CC(OC[C@H](O)CNC(C)(C)Cc1ccc2ccccc2c1)c1ccccc1OCCCCC(=O)O (stereo partly drawn) [Example 26] | 190 nM | 
15 | C[C@@H](OC[C@H](O)CNC(C)(C)Cc1ccc2ccccc2c1)c1ccccc1-c1ccc(N)cc1 [Example 29] | 55 nM | 
16 | rat PTH (1-34): rat parathyroid hormone fragment (1-34) administered to OVX rat |  | blood PTH concentration peak in 30 minutes (PTH release): about 175 pg/ml; time for blood PTH concentration to return to the original level (PTH release): 2 h
17 | CC(OC[C@H](O)CNC(C)(C)Cc1ccc2ccccc2c1)c1ccccc1OCC(=O)O (stereo partly drawn) [Example 22] | 237 nM | 
18 | CC(C)(Cc1ccc2ccccc2c1)NC[C@@H](O)COC(C1CC1)C1CC1 [Example 3, (2R)-1-dicyclopropylmethoxy-3-[[2-methyl-1-(naphthalen-2-yl)propan-2-yl]amino]propan-2-ol] | 23 nM | 
19 | Cc1ccccc1[C@H](OC[C@@H](CNC(C)(C)Cc1ccc2ccccc2c1)OC(=O)/C=C\C(=O)O)C1CC1 [Example 6, (Z)-butenedioic acid mono-[(2R)-1-[(1R)-(cyclopropyl)-(2-methylphenyl)methoxy]-3-[[2-methyl-1-(naphthalen-2-yl)propan-2-yl]amino]propan-2-yl]ester] | 79 nM | serum PTH concentration 30 min later (PTH secretion; 30 mg/kg oral): 14.45 ± 1.45 pg/mL; serum PTH concentration 60 min later (PTH secretion; 30 mg/kg oral): 13.91 ± 1.62 pg/mL

More lines, main results first:

Row | IC50 (human calcium receptor) | Compound | further results
20 | 22 nM | CC(OC[C@H](O)CNC(C)(C)Cc1ccc2ccccc2c1)c1ccccc1-c1ccc(C(=O)NS(C)(=O)=O)cc1 (stereo partly drawn) [Example 18] | IC50 (CYP2D6): 8000 nM
21 | 11 nM | CC(OC[C@H](O)CNC(C)(C)Cc1ccc2ccccc2c1)c1ccccc1-c1ccc(-c2nnn[nH]2)cc1 (stereo partly drawn) [Example 7, (R)-3-[[2-methyl-1-(naphthalen-2-yl)propan-2-yl]amino]-1-[1-[4′-(1H-tetrazol-5-yl)biphenyl-2-yl]ethoxy]propan-2-ol] | 
22 | 18 nM | C[C@@H](OC[C@H](O)CNC(C)(C)Cc1ccc2ccccc2c1)c1ccccc1CCCCC(=O)O [Example 25] | serum PTH concentration 15 min later (PTH secretion; 3 mg/kg oral): 19.16 ± 4.05 pg/mL; serum PTH concentration 30 min later (PTH secretion; 3 mg/kg oral): 18.15 ± 3.15 pg/mL
23 | 11 nM | C[C@@H](OC[C@H](O)CNC(C)(C)Cc1ccc2ccccc2c1)c1ccccc1-c1cccc(CC(=O)O)c1 [Example 4, [2′-[(1R)-1-[(2R)-2-hydroxy-3-[[2-methyl-1-(naphthalen-2-yl)propan-2-yl]amino]propoxy]ethyl]biphenyl-3-yl]acetic acid] | serum PTH concentration 15 min later (PTH secretion; 3 mg/kg oral): 22.71 ± 2.52 pg/mL; serum PTH concentration 30 min later (PTH secretion; 3 mg/kg oral): 22.83 ± 2.91 pg/mL; serum PTH concentration 60 min later (PTH secretion; 3 mg/kg oral): 13.69 ± 2.09 pg/mL; serum PTH concentration 120 min later (PTH secretion; 3 mg/kg oral): 11.76 ± 1.24 pg/mL
24 | 21 nM | CC(OC(=O)OC1CCCCC1)OC(=O)c1ccc(-c2ccccc2C(C)OC[C@H](O)CNC(C)(C)Cc2ccc3ccccc3c2)cc1 (stereo partly drawn) [Example 8, 1-(cyclohexyloxycarbonyloxy)ethyl 2′-[1-[(2R)-2-hydroxy-3-[[2-methyl-1-(naphthalen-2-yl)propan-2-yl]amino]propoxy]ethyl]biphenyl-4-carboxylate] | 
25 | 14 nM | C[C@@H](OC[C@H](O)CNC(C)(C)Cc1ccc2ccccc2c1)c1ccccc1CCCCCC(=O)O [Example 2, 6-[2-[(1R)-1-[(2R)-2-hydroxy-3-[[2-methyl-1-(naphthalen-2-yl)propan-2-yl]amino]propoxy]ethyl]phenyl]hexanoic acid] | 
26 | 14 nM | C=Cc1ccc(CC(C)(C)NC[C@@H](O)CO[C@H](C)c2ccccc2-c2ccc(C(=O)O)cc2)cc1 [Example 27] | 
27 | 18 nM | CC(OC[C@H](O)CNC(C)(C)Cc1ccc2ccccc2c1)c1ccccc1-c1ccc(-c2nc(=O)o[nH]2)cc1 (stereo partly drawn) [Example 19] | 
28 | 16 nM | C[C@@H](OC[C@H](O)CNC(C)(C)Cc1ccc2ccccc2c1)c1ccccc1/C=C/C(=O)O [Example 23] | 
29 | 14 nM | CC(OC[C@H](O)CNC(C)(C)Cc1ccc2ccccc2c1)c1ccccc1-c1ccc(C(=O)O)s1 (stereo partly drawn) [Example 9, 5-[2-[1-[(2R)-2-hydroxy-3-[[2-methyl-1-(naphthalen-2-yl)propan-2-yl]amino]propoxy]ethyl]phenyl]thiophene-2-carboxylic acid] | 
